Bridge positions count the residues as written; N and C are the ends. Square brackets hold non-standard residues; d marks the D form. Peptide text beside a SMILES is read from it. hArg = N=C(N)NCCCC[C@H](N)C(=O)O; Ac5c = NC1(C(=O)O)CCCC1; Nva = CCC[C@H](N)C(=O)O; Abu = CC[C@H](N)C(=O)O; Aib = CC(C)(N)C(=O)O
Target: T1, Saos-2 PTH1R (Homo sapiens, UniProt Q03431)
T1 construct: endogenous in cells; host or cells: Saos-2
T1 sequence (Q03431 27-593): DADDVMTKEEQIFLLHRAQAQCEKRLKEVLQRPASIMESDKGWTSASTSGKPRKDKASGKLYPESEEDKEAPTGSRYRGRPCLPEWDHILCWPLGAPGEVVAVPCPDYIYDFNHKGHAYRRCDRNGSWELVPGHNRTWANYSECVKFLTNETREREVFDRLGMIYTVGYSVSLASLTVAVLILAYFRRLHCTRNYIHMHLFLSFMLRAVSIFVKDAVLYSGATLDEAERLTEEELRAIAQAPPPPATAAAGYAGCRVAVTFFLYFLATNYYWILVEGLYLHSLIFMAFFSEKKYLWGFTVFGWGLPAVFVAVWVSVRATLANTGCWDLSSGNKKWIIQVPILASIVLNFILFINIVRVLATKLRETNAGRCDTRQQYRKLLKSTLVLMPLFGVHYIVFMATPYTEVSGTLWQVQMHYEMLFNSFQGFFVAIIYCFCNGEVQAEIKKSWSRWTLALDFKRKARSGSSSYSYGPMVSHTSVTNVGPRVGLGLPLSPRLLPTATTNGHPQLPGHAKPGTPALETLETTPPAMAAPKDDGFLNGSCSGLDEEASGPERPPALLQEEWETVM
Assay: cAMP-efficacy assay in Saos-2 cells
Format: cell-based
Conditions: for EC50: cAMP, 100 μM IBMX, 37° C. 15 min, suffix of label = salt tested; for Emax ± SEM: relative effect to the control (SEQ ID NO: 32)
Experimental: Peptides were dissolved in phosphate buffered saline and further diluted in Tyrode's buffer (TB, Sigma-Aldrich) containing 0.1% BSA and 100 μM isobutyl-methyl-xanthine (IBMX, Sigma-Aldrich). Saos-2 cells were seeded at 50,000 cells/well in 96-microtiter plates and grown for two days before the efficacy assays. On the day of analysis, the growth medium was carefully removed by suction. Cells were washed once with 200 μl TB/0.1% BSA. The buffer was replaced with 100 μl reaction mixture (±test peptide), and incubated at 37° C. for 15 min. The reaction was stopped by addition of 25 μl of ice-cold 0.5 M HCl. Cells were in the following incubated on ice for 60 min. 75 μl acetate-buffer, pH6.2, was added to each well of a 96-well cAMP FlashPlate (Perkin-Elmer). […] FlashPlates were incubated overnight at 4° C., emptied by suction and counted in a TopCounter (Packard).
Determinations were performed in single determinations or triplicates at all doses. […] Standards were included as single determinations, duplicates or triplicates in each experiment, preferentially on each plate.
Concentration-dependent cAMP responses were imported into GraphPad Prism vers. 4 (GraphPad Software), transformed and plotted. […] Thus, a four-parameter logistic equation was used for determination of the EC50 values. Curves were fitted with a function for sigmoidal dose response curve (variable slope) non-linear fit Y=Bottom+(Top-Bottom)/(1+10̂((LogEC50−X)*HillSlope)) where X is the logarithm of concentration and Y is the response. Y starts at Bottom and goes to Top with a sigmoid shape. pEC50, Hill-coefficient and the maximally inducible concentration of cAMP (Emax) were evaluated.
Overall statistical differences were analyzed with Statistica (Statsoft) using one-way ANOVA. Post-hoc comparisons were made by the use of Fisher's Least Significance Test. Results were considered significant, when p was lower than 0.05.

## CC[C@H](C)[C@H](NC(=O)[C@H](CCC(=O)O)NC(=O)C1(NC(=O)[C@@H](NC(=O)C2(N)CCCC2)C(C)C)CCCC1)C(=O)N[C@@H](CCC(N)=O)C(=O)N[C@@H](CC(C)C)C(=O)N[C@@H](CC(C)C)C(=O)N[C@@H](Cc1c[nH]cn1)C(=O)N[C@@H](CCC(N)=O)C(=O)N[C@@H](CCCCNC(=N)N)C(=O)N[C@@H](C)C(=O)N[C@H]1CCCCNC(=O)C[C@@H](C(N)=O)NC(=O)[C@H](CC(N)=O)NC(=O)[C@H](CC(C)C)NC(=O)[C@H](Cc2c[nH]c3ccccc23)NC1=O [SEQ ID NO: 14, H-Ac5c-Val-Ac5c-Glu-Ile-Gln-Leu-Leu-His-Gln-Har-Ala-Lys( )-Trp-Leu-Asn-Asp( )-NH2] (H-[Ac5c]V[Ac5c]EIQLLHQ[hArg]AKWLND-NH2; lactam 13-17)
  EC50: 35.5 nM
  Emax ± SEM: 1.03 ± 0.05

## CC[C@H](NC(=O)[C@@H](NC(=O)C1(N)CCCC1)C(C)C)C(=O)N[C@@H](CCC(=O)O)C(=O)N[C@H](C(=O)N[C@@H](CCC(N)=O)C(=O)N[C@@H](CC(C)C)C(=O)N[C@@H](CC(C)C)C(=O)N[C@@H](Cc1c[nH]cn1)C(=O)N[C@@H](CCC(N)=O)C(=O)N[C@@H](CCCCNC(=N)N)C(=O)N[C@@H](C)C(=O)N[C@H]1CCCCNC(=O)C[C@@H](C(N)=O)NC(=O)[C@H](CC(N)=O)NC(=O)[C@H](CC(C)C)NC(=O)[C@H](Cc2c[nH]c3ccccc23)NC1=O)[C@@H](C)CC [SEQ ID NO: 15, H-Ac5c-Val-Abu-Glu-Ile-Gln-Leu-Leu-His-Gln-Har-Ala-Lys( )-Trp-Leu-Asn-Asp( )-NH2] (H-[Ac5c]V[Abu]EIQLLHQ[hArg]AKWLND-NH2; lactam 13-17)
  EC50: 60.3 nM
  Emax ± SEM: 1.04 ± 0.03

## CCC[C@H](NC(=O)[C@@H](NC(=O)C1(N)CCCC1)C(C)C)C(=O)N[C@@H](CCC(=O)O)C(=O)N[C@H](C(=O)N[C@@H](CCC(N)=O)C(=O)N[C@@H](CC(C)C)C(=O)N[C@@H](CC(C)C)C(=O)N[C@@H](Cc1c[nH]cn1)C(=O)N[C@@H](CCC(N)=O)C(=O)N[C@@H](CCCCNC(=N)N)C(=O)N[C@@H](C)C(=O)N[C@H]1CCCCNC(=O)C[C@@H](C(N)=O)NC(=O)[C@H](CC(N)=O)NC(=O)[C@H](CC(C)C)NC(=O)[C@H](Cc2c[nH]c3ccccc23)NC1=O)[C@@H](C)CC [SEQ ID NO: 16, H-Ac5c-Val-Nva-Glu-Ile-Gln-Leu-Leu-His-Gln-Har-Ala-Lys( )-Trp-Leu-Asn-Asp( )-NH2] (H-[Ac5c]V[Nva]EIQLLHQ[hArg]AKWLND-NH2; lactam 13-17)
  EC50: 120 nM
  Emax ± SEM: 1.03 ± 0.04

## CC[C@H](C)[C@H](NC(=O)[C@H](CCC(=O)O)NC(=O)C(C)(C)NC(=O)[C@@H](NC(=O)C1(N)CCCC1)C(C)C)C(=O)N[C@@H](CCC(N)=O)C(=O)N[C@@H](CC(C)C)C(=O)N[C@@H](CC(C)C)C(=O)N[C@@H](Cc1c[nH]cn1)C(=O)N[C@@H](CCC(N)=O)C(=O)N[C@@H](CCCCNC(=N)N)C(=O)N[C@@H](C)C(=O)N[C@H]1CCCCNC(=O)C[C@@H](C(N)=O)NC(=O)[C@H](CC(=O)O)NC(=O)[C@H](CC(C)C)NC(=O)[C@H](Cc2c[nH]c3ccccc23)NC1=O [SEQ ID NO: 22, H-Ac5c-Val-Aib-Glu-Ile-Gln-Leu-Leu-His-Gln-Har-Ala-Lys( )-Trp-Leu-Asp-Asp( )-NH2] (H-[Ac5c]V[Aib]EIQLLHQ[hArg]AKWLDD-NH2; lactam 13-17)
  EC50: 74.1 nM
  Emax ± SEM: 1.08 ± 0.04

## CC[C@H](C)[C@H](NC(=O)[C@H](CCC(=O)O)NC(=O)C(C)(C)NC(=O)[C@@H](NC(=O)C1(N)CCCC1)C(C)C)C(=O)N[C@@H](CCC(N)=O)C(=O)N[C@@H](CC(C)C)C(=O)N[C@@H](CCSC)C(=O)N[C@@H](Cc1c[nH]cn1)C(=O)N[C@@H](CCC(N)=O)C(=O)N[C@@H](CCCCNC(=N)N)C(=O)N[C@@H](C)C(=O)N[C@H]1CCCCNC(=O)C[C@@H](C(N)=O)NC(=O)[C@H](CC(=O)O)NC(=O)[C@H](CC(C)C)NC(=O)[C@H](Cc2c[nH]c3ccccc23)NC1=O [SEQ ID NO: 23, H-Ac5c-Val-Aib-Glu-Ile-Gln-Leu-Met-His-Gln-Har-Ala-Lys( )-Trp-Leu-Asp-Asp( )-NH2] (H-[Ac5c]V[Aib]EIQLMHQ[hArg]AKWLDD-NH2; lactam 13-17)
  EC50: 33.1 nM
  Emax ± SEM: 1.16 ± 0.08

## CC[C@H](C)[C@H](NC(=O)[C@H](CCC(=O)O)NC(=O)C(C)(C)NC(=O)[C@@H](NC(=O)C1(N)CCCC1)C(C)C)C(=O)N[C@@H](CCC(N)=O)C(=O)N[C@@H](CC(C)C)C(=O)N[C@@H](CCSC)C(=O)N[C@@H](Cc1c[nH]cn1)C(=O)N[C@@H](CCC(N)=O)C(=O)N[C@@H](CCCNC(=N)N)C(=O)N[C@@H](C)C(=O)N[C@H]1CCCCNC(=O)C[C@@H](C(N)=O)NC(=O)[C@H](CC(N)=O)NC(=O)[C@H](CC(C)C)NC(=O)[C@H](Cc2c[nH]c3ccccc23)NC1=O [SEQ ID NO: 25] (H-[Ac5c]V[Aib]EIQLMHQRAKWLND-NH2; lactam 13-17)
  EC50: 8.91 nM
  Emax ± SEM: 1.04 ± 0.03

## CC[C@H](C)[C@H](NC(=O)[C@H](CCC(=O)O)NC(=O)C(C)(C)NC(=O)[C@@H](NC(=O)C1(N)CCCC1)C(C)C)C(=O)N[C@@H](CCC(N)=O)C(=O)N[C@@H](CC(C)C)C(=O)N[C@@H](CCSC)C(=O)N[C@@H](Cc1c[nH]cn1)C(=O)N[C@@H](CCC(N)=O)C(=O)N[C@@H](CCCCNC(=N)N)C(=O)N[C@@H](C)C(=O)N[C@H]1CCCCNC(=O)C[C@@H](C(N)=O)NC(=O)[C@H](CC(N)=O)NC(=O)[C@H](CC(C)C)NC(=O)[C@H](Cc2ccccc2)NC1=O [SEQ ID NO: 26, H-Ac5c-Val-Aib-Glu-Ile-Gln-Leu-Met-His-Gln-Har-Ala-Lys( )-Phe-Leu-Asn-Asp( )-NH2] (H-[Ac5c]V[Aib]EIQLMHQ[hArg]AKFLND-NH2; lactam 13-17)
  EC50: 12.6 nM
  Emax ± SEM: 1.08 ± 0.09

## CC[C@H](C)[C@H](NC(=O)[C@H](CCC(=O)O)NC(=O)C(C)(C)NC(=O)[C@@H](NC(=O)C1(N)CCCC1)C(C)C)C(=O)N[C@@H](CCC(N)=O)C(=O)N[C@@H](Cc1ccccc1)C(=O)N[C@@H](CC(C)C)C(=O)N[C@@H](Cc1c[nH]cn1)C(=O)N[C@@H](CCC(N)=O)C(=O)N[C@@H](CCCCNC(=N)N)C(=O)N[C@@H](C)C(=O)N[C@H]1CCCCNC(=O)C[C@@H](C(N)=O)NC(=O)[C@H](CC(N)=O)NC(=O)[C@H](CC(C)C)NC(=O)[C@H](Cc2c[nH]c3ccccc23)NC1=O [SEQ ID NO: 27, H-Ac5c-Val-Aib-Glu-Ile-Gln-Phe-Leu-His-Gln-Har-Ala-Lys( )-Trp-Leu-Asn-Asp( )-NH2] (H-[Ac5c]V[Aib]EIQFLHQ[hArg]AKWLND-NH2; lactam 13-17)
  EC50: 12.3 nM
  Emax ± SEM: 0.92 ± 0.06

## CC[C@H](C)[C@H](NC(=O)[C@H](CCC(=O)O)NC(=O)C(C)(C)NC(=O)[C@@H](NC(=O)C1(N)CCCC1)C(C)C)C(=O)N[C@@H](CCC(N)=O)C(=O)N[C@@H](CC(C)C)C(=O)N[C@@H](CC(C)C)C(=O)N[C@@H](Cc1c[nH]cn1)C(=O)N[C@@H](CCC(N)=O)C(=O)N[C@@H](CCCCNC(=N)N)C(=O)N[C@@H](CCCNC(=N)N)C(=O)N[C@H]1CCCCNC(=O)C[C@@H](C(N)=O)NC(=O)[C@H](CC(N)=O)NC(=O)[C@H](CC(C)C)NC(=O)[C@H](Cc2c[nH]c3ccccc23)NC1=O [SEQ ID NO: 28, H-Ac5c-Val-Aib-Glu-Ile-Gln-Leu-Leu-His-Gln-Har-Arg-Lys( )-Trp-Leu-Asn-Asp( )-NH2] (H-[Ac5c]V[Aib]EIQLLHQ[hArg]RKWLND-NH2; lactam 13-17)
  EC50: 5.37 nM
  Emax ± SEM: 0.95 ± 0.06

## CC[C@H](C)[C@H](NC(=O)[C@H](CCC(=O)O)NC(=O)C(C)(C)NC(=O)[C@@H](NC(=O)C1(N)CCCC1)C(C)C)C(=O)N[C@@H](CCC(=O)O)C(=O)N[C@@H](CC(C)C)C(=O)N[C@@H](CC(C)C)C(=O)N[C@@H](Cc1c[nH]cn1)C(=O)N[C@@H](CCC(N)=O)C(=O)N[C@@H](CCCCNC(=N)N)C(=O)N[C@@H](C)C(=O)N[C@H]1CCCCNC(=O)C[C@@H](C(N)=O)NC(=O)[C@H](CC(N)=O)NC(=O)[C@H](CC(C)C)NC(=O)[C@H](Cc2c[nH]c3ccccc23)NC1=O [SEQ ID NO: 29, H-Ac5c-Val-Aib-Glu-Ile-Glu-Leu-Leu-His-Gln-Har-Ala-Lys( )-Trp-Leu-Asn-Asp( )-NH2] (H-[Ac5c]V[Aib]EIELLHQ[hArg]AKWLND-NH2; lactam 13-17)
  EC50: 112 nM
  Emax ± SEM: 1.27 ± 0.20

From patent publication US20100048462A1, “TRUNCATED PTH PEPTIDES WITH A CYCLIC CONFORMATION” (Zealand Pharma A/S, priority 2006, published 2010)
